The values below come from patent US7964573B2, “Regulating expression of transient receptor potential channel genes” (The Regents of the University of California, priority 2005, dated 2011).

Entries after “also recorded” stand apart in the source; their conditions may differ.

The subject of data set [1] is TRPC6. Put plainly: siRNA suppression of TRPC6 protein and mRNA levels in COS-7 cells. Type of data set: cell-based. The source says:
(§1) In separate experiments, siRNA was used to prevent expression and translation of the TRPC6 gene in vitro. Several fragments of open reading frames in the TRPC6 gene were identified which suppressed expression of TRPC6 protein and mRNA levels. […] A scrambled siRNA vector served as a non-silencing control.

A further data set deals with IPAH-PASMC. Description: [3H]-thymidine incorporation (proliferation) in IPAH-PASMC. Type of data set: cell-based, human. The conditions noted are these: proliferating IPAH-PASMC, transfected. As to the method:
(§2) Another aspect relates to the use of siRNA to inhibit the expression of TRPC6 gene. Human PASMC were isolated and cultured from normal subjects (normal PASMC) and subjects with IPAH (IPAH-PASMC). Levels of canonical TRP (TRPC) isoforms (mRNA and protein) were measured using RT-PCR and Western blot analysis. In addition, levels of TRPC6 in vivo were measured and compared with levels of Ki67, a nuclear protein expressed during S and G2/M phase of the cell cycle, using in situ immunofluorescence staining of proliferating PASMC (see Kuga et al. (1996) Circ. Res. 79:14-19). Cell cycle phase was determined by BrdU uptake and by [^3H]-thymidine incorporation into DNA. PASMC were incubated with [^3H]-thymidine for 16 hours following 24 hours of growth arrest and 48 hours of growth induction and measuring percent extent of radiolabel incorporation into precipitated DNA.
as §1

In data set [2] the test system is TRPC6. Description: TRPC6 mRNA and protein expression in IPAH-PASMC after siRNA transfection (RT-PCR, Western blot). Type of data set: cell-based, human. The conditions noted are these: for TRPC6 protein expression: IPAH-PASMC, transfected. As to the method: as §2, §1

Take “TRPC6 siRNA-2: siRNA against the TRPC6 gene, sequence AAGGTCTTTATGCAATTGCTG (SEQ ID NO: 5) (listed as DNA, chemistry not given here)”: in the data set on TRPC6 [1], the “suppression of expression of TRPC6 protein and mRNA levels” value is “most effective”. Moreover, the “[3H]-thymidine incorporation (proliferation)” value with IPAH-PASMC (listed as TRPC6-siRNA) is “markedly attenuated”; in the data set on IPAH-PASMC (listed as TRPC6 siRNA), “significantly decreased; also recorded: attenuates”. Besides, the TRPC6 protein expression entry in the data set with TRPC6 [2] is “significantly decreased; also recorded: attenuates”; in the data set with TRPC6 [2] (listed as TRPC6 siRNA (SEQ ID NO: 5)), “significantly inhibits”. The “TRPC6 mRNA expression level” value in the data set on TRPC6 [2] (PASMC from patients with IPAH) is “significantly inhibits”.
